Data on four compounds can be found in PMC12430278, “A Simple and Reliable Method for the Determination of Isorhapontigenin in Murine Biological Matrices: Application in a Tissue Distribution Study” (Molecules, 2025).

Data set [1] can be described thus: Stability of stock solutions. In kind it is physicochemical. Particulars: DMSO stock solution, stock solution 0.40 mg/mL, n = 6, read-out: Remaining (%, Mean ± SD). On the procedure:
Stock solutions of ISO and trans-stilbene (internal standard, IS) were prepared in DMSO at a final concentration of 1 mg/mL. These solutions were stored at −20 °C and protected from light. The calibration standard and quality control (QC) samples were prepared by serial dilution of the ISO stock solution with pooled blank murine plasma or respective tissue homogenate.
The stability of ISO was evaluated under various storage conditions. Stock solution stability was assessed after storage at room temperature (25 °C) and –20 °C. The stability of ISO in plasma was examined under the following conditions: short-term storage (25 °C for 24 h), long-term storage (–80 °C for 52 days), three freeze–thaw cycles, and post-preparative stability (samples kept in an autosampler at 4 °C for more than 24 h). As it is difficult to evaluate ISO stability directly in tissues, only the short-term stability in tissue homogenates was assessed (6 h on ice). Similarly, post-preparative stability in processed tissue samples was assessed using liver homogenate as a representative, due to the complexity of the hepatic matrix. Stability was considered acceptable if 85–115% of the initial ISO concentration remained.

The conditions of data set [2]: cited from earlier work; for Oral absorption: in vivo.
For data set [3] the following is noted: enzymatic-hydrolysis approach; cited from earlier work.

In the case of `C(=C\c1ccccc1)/c1ccccc1` [Internal standard, trans-stilbene, reference compound], the amount remaining at 24 h, 0.4 mg/mL in data set [1] (stored at room temperature for 24 h) came to 94.7 ± 0.3%. In addition, the fraction remaining at 480 h, 0.4 mg/mL in data set [1] (stored at −20 °C for 20 days) is 105.3 ± 0.7%.
Consider `Oc1cc(O)cc(/C=C/c2ccc(O)cc2O)c1` [oxyresveratrol], for which, in data set [2], the Oral absorption result is given as “rapid oral absorption”.
Take `Oc1cc(O)cc(/C=C/c2ccc(O)c(O)c2)c1` [piceatannol, reference compound]: the Oral absorption entry in data set [2] is listed as “rapid oral absorption”. The Sulfation entry in data set [3] was “extensive sulfation”.
For the compound `COc1cc(/C=C/c2ccc(O)cc2)cc(OC)c1` [pterostilbene], in data set [2] (compared with ISO's limited brain penetration after oral administration), the Brain bioavailability result is recorded as “significantly improved brain bioavailability”.
